Measurements reported in patent publication US20120121691A1, “Method for Increasing the Production of a Specific ACYL-Chain Dihydroceramide(s) for Improving the Effectiveness of Cancer Treatments” (priority 2010, published 2012).

Columns and labels:
[1] = tested on: NCI-H1792 non-small cell lung cancer cells; experiment: DIMSCAN cytotoxicity assay, NCI-H1792; type: cell-based; settings: NCI-H1792, fatty acid 5 micromolar
From the text: (§1) Cell culture. The pre-T acute lymphoblastic leukemia cell lines MOLT-4 and CCRF-CEM, small cell lung cancer cell line NCI-H146, non-small cell lung cancer cell line NCI-H1792, colon cancer cell lines LoVo and HT-29, and breast cancer cell line MCF-7, were purchased from American Type Culture Collection, Manassas, Va., and grown at 20%/5% and 5%/5%, respectively. COG-LL-317 and COG-LL-332 pre-T acute lymphoblastic leukemia cell lines were obtained from the TTUHSC Cancer Center Cell Repository and grown at 5%/5%. Cell line identities were verified by short tandem repeat analysis and mycoplasma testing was performed. Cell lines were maintained in RPMI-1640 medium supplemented with 10% fetal bovine serum (FBS, Invitrogen) in humidified, 37° C. incubators. For all experiments, ALL cell lines were seeded at 2. cells/mL in RPMI-1640 medium supplemented with 15% fetal bovine serum. Solid tumor cell lines were plated at 5×cells/mL in RPMI-1640 medium supplemented with 10% fetal bovine serum.
(§2) Cytotoxicity Assay. Cytoxicity is determined using the DIMSCAN assay system (R. Proffitt et al., Cytometry 24, 204-213 (1996); T. Frgala et al., Proc. AACR, 36, 303 (1995). The system employs digital imaging microscopy to quantify viable cells, which selectively accumulate fluorescein diacetate to become brightly fluorescent. The system is capable of measuring cytotoxicity over a 4-5 log dynamic range by quenching the residual fluorescence of dead and dying cells with eosin Y and quantifying the total fluorescence of viable cells using digital thresholding. Measured fluorescence is directly proportionate to the number of viable cells. A comparison of the total fluorescence of a drug-treated cell population to the fluorescence of a similar number of untreated cells yields a survival fraction.
(§3) In brief, 5,000 to 25,000 cells/well depending on the cell line (5,000 for solid tumor, 25,000 for ALL cell lines) were replicate plated into 60 wells of a 96-well tissue culture plate in 0.1 cc media and allowed to attach or recover overnight. […]

[2] = tested on: LoVo colon cancer cells; experiment: DIMSCAN cytotoxicity assay, LoVo; type: cell-based, human; settings: fatty acid 5 micromolar
From the text: as §1
as §2, with “cells.” for “cells. A comparison of the total fluorescence of a drug-treated cell population to the fluorescence of a similar number of untreated cells yields a survival fraction.”
In brief, 5,000 to 25,000 cells/well depending on the cell line (5,000 for solid tumor, 25,000 for ALL cell lines) were replicate plated into 60 wells of a 96-well tissue culture plate in 0.1 cc media and allowed to attach or recover overnight. Drug(s) are then added in 0.05 cc media to the final concentrations indicated. […] Total fluorescence of viable cells is then measured by digital imaging microscopy and the signal normalized to control cells. […]

[3] = tested on: MCF-7 breast cancer cells; experiment: DIMSCAN cytotoxicity assay, MCF-7; type: cell-based; settings: MCF-7, fatty acid 5 micromolar
From the text: as §1, §2, §3

[4] = tested on: CCRF-CEM cells; experiment: DIMSCAN cytotoxicity assay, CCRF-CEM; type: cell-based; settings: 48 hours
From the text: as §1, with “For all experiments, ALL cell lines were seeded at 2. cells/mL in RPMI-1640 medium supplemented with 15% fetal bovine serum. Solid tumor cell lines were plated at 5×cells/mL in RPMI-1640 medium supplemented with 10% fetal bovine serum.” left out
as §2, with “A comparison of the total fluorescence of a drug-treated cell population to the fluorescence of a similar number of untreated cells yields a survival fraction.” left out

Row | SMILES | effect of fatty acid on fenretinide cytotoxicity [1] | effect of fatty acid on fenretinide cytotoxicity [2] | effect of fatty acid on fenretinide cytotoxicity [3] | effect of fatty acid addition on sphinganine/GT-11 cytotoxicity [4]
1 | CCCCCCCCCCCCCCCCCCCCCC(=O)O [C22:0-fatty acid] | increased fenretinide cytotoxicity | increased fenretinide cytotoxicity | increased fenretinide cytotoxicity | –
2 | CCCCCCCC/C=C\CCCCCCCCCCCC(=O)O [C22:1-fatty acid] | – | – | – | did not impart any additional cytotoxicity
